Reference: patent US20240226117A1, “TREATMENT OF CONGENITAL ADRENAL HYPOPLASIA” (ReveraGen BioPharma, Inc., priority 2021, published 2024)

Legend:
Assay type in all cases: in vivo, human
[1] = test system: ambulant boys with DMD; test: VBP15-004 growth (height Z score)
[2] = test system: DMD participants; test: Skeletal maturation by wrist x-ray, VBP15-LTE Month 24; details: for Bone Age difference to Chronologic Age, mean (SD): wrist x-ray at LTE Month 24, n = 39
Text: In certain embodiments, the difference between chronological age of the human patient and the bone age of the human patient is reduced. A child's bone age (also called the skeletal age) is assigned by determining which of the standard X-ray images in the atlas most closely match the appearance of the child's bones on the X-ray. A difference between a child's bone age and chronological age might indicate a growth problem. The larger the difference between the bone age of a human patient and their chronological age, the greater the growth problem or disease symptom.
In addition, 39/41 LTE participants had wrist x-ray at Month 24; the mean bone age to chronologic age difference was −1.1 (p<0.001, CI −1.5, −0.7), indicating possible skeletal maturation delay (Table 7).

[3] = test system: DMD participants; test: Morning serum cortisol (adrenal suppression); details: 24-week trial
Protocol: Two tests for adrenal insufficiency were used: morning cortisol (before drug) and ACTH stimulation tests. Adrenal suppression was measured via morning serum cortisol levels at Baseline, 12-weeks, and 24-weeks. The ACTH stimulation test was measured at Baseline and 24-weeks. Morning cortisol was measured in the clinic before daily drug administration. Morning cortisol levels were similar at Baseline (˜200 nmol/L) in all groups and remained stable over the 24-week trial in the Placebo Group.

[4] = test system: DMD participants; test: VBP15-003/VBP15-LTE motor outcomes over 18 months (TTSTAND, TTRW, TTCLIMB, 6MWT, NSAA); details: ANCOVA; for TTCLIMB velocity, LS mean difference (SE) / TTSTAND velocity, LS mean difference (SE): vamorolone 2.0 or 6.0 mg/kg/day 18 months versus corticosteroid-naïve DNHS
Protocol: Three consecutive clinical trials of vamorolone treatment of DMD were conducted by CINRG (VBP15-002 [NCT02760264]: VBP15-003 [NCT02760277]: VBP15-LTE [NCT03038399]). A total of 48 participants (ages 4 to <7 years) were initially enrolled into VBP15-002, with trial participants completing month 12 of the 24-month VBP15-LTE study.
The consecutive vamorolone trials (VBP15-002, VBP15-003, VBP15-LTE) were open-label with no placebo comparator. Corticosteroid-naïve and corticosteroid-treated DMD participant comparators were group-matched participants from the CINRG DNHS (NCT00468832). The CINRG DNHS was an observational, prospective case-control study of 551 participants (440 with DMD, 111 healthy peers). For group matching between vamorolone-treated participants and CINRG DNHS participants, prespecified criteria were defined for matching within the interim statistical analysis plan (iSAP). Age-matched CINRG DNHS participants included those continuously corticosteroid-naïve over an 18-month period (n=19) or continuously corticosteroid-treated over an 18-month period (n=68). For the 68 corticosteroid-treated participants, as this was an observational cohort, corticosteroid doses and regimens varied based on clinician discretion. Although all 68 participants were treated for 18 months continuously, the age at initiation of corticosteroids varied. Thus, the total duration of corticosteroid treatment was longer than 18 months for most participants.
Assessments of efficacy were motor outcomes (primary outcome: time to stand from supine [TTSTAND]: secondary outcomes: time to run/walk 10 meters [TTRW], time to climb four stairs [TTCLIMB], distance covered in 6-minute walk test [6MWT], and the North Star Ambulatory Assessment [NSAA]). 6MWT and NSAA were not assessed in most CINRG DNHS participants and were not compared to vamorolone-treated participants. According to standard operating procedures, clinical evaluators were trained to harmonize the CINRG vamorolone, CINRG DNHS, and CINRG prednisone studies. Reliability of these outcomes (percent coefficient of variation) has been reported for the VBP15-002/VBP15-003 studies. Assessments were done at baseline (VBP15-002 entry), 24 weeks (VBP15-003 last visit), and 18 months (VBP15-LTE midpoint assessment at 12 months).
Only participants completing VBP15-002 and VBP15-003 were eligible to enroll in VBP15-LTE. Participants received vamorolone at 1 of 4 dose levels (0.25, 0.75, 2.0, or 6.0 mg/kg/day) and at the same dose level in both the 4-week VBP15-002 trial and the 24-week VBP15-003 trial. If participants, their families, and their physicians wished to continue vamorolone treatment upon exiting the VBP15-003 trial, they were offered participation in the 24-month long-term extension (VBP15-LTE). The last visit of the VBP15-003 trial was commensurate with the first visit of the VBP15-LTE trial. In all studies, study medication was provided as 4% flavored liquid suspension and was dosed according to body weight and given once daily in the morning with food.
Vamorolone-treated participants were initially enrolled into VBP15-002 and VBP15-003 in 4 dose groups (0.25, 0.75, 2.0, and 6.0 mg/kg/day: groups A-D). Upon entering VBP15-LTE, vamorolone group A participants had 2 or 3 sequential dose escalations and were treated with 2.0 or 6.0 mg/kg/day for the last 3-9 months of the 18 months: group B participants had 1 or 2 dose escalations and were treated with 2.0 or 6.0 mg/kg/day for the last 9-11 months. Groups C and D were treated for 18 months at 2.0 or 6.0 mg/kg/day (S1 Fig).
The current study is the first to evaluate the longer-term tolerability, efficacy, and safety of vamorolone in DMD. […] Given the variable timing of dose escalations, it was prespecified that initial analyses of drug-related efficacy and safety would be limited to those participants who had 18 months of treatment with 2.0 mg/kg/day vamorolone or more (dose group C+dose group D: n=23). […]

[5] = vamorolone 18 months versus corticosteroid-naïve participants

SMILES: C[C@@H]1C[C@H]2[C@@H]3CCC4=CC(=O)C=C[C@]4(C)C3=CC[C@]2(C)[C@@]1(O)C(=O)CO [Vamorolone, 17α,21-dihydroxy-16α-methylpregna-1,4,9(11)-triene-3,20-dione]
- change in height Z scores from baseline to Week 24 ([1]; vamorolone 2.0 mg/kg/day): overall stable height change Z scores
- change in height Z scores from baseline to Week 24 ([1]; vamorolone 6.0 mg/kg/day, p=0.02 versus prednisone): increased growth rate
- Bone Age difference to Chronologic Age, mean (SD) [2]: −1.1 (1.2), yr
- Bone Age difference to Chronologic Age, mean (SD) ([2]; listed as vamorolone): −1.1 yr
- LTE Month 24 Bone Age, mean (SD) ([2]; wrist x-ray, n = 39, chronologic age 8.0 (1.0) yr): 6.8 (1.4), n = 39 yr
- adrenal suppression by morning cortisol, compared with prednisone ([3]; vamorolone 2.0 mg/kg/day, p=0.002): less adrenal suppression than prednisone
- adrenal suppression by morning cortisol, compared with prednisone ([3]; vamorolone 6.0 mg/kg/day): not significantly different from prednisone
- TTCLIMB velocity, LS mean difference (SE) [4]: 0.059 (0.026) event/second
- TTSTAND velocity, LS mean difference (SE) [4]: 0.042 (0.024) event/second
- TTCLIMB velocity, LS mean difference (SE) ([4]; listed as vamorolone): 0.059 event/second
- TTSTAND velocity, LS mean difference (SE) ([4]; listed as vamorolone): 0.042 event/second
- TTCLIMB in seconds units, LS mean difference [4, 5]: -0.34 s
- TTRW in seconds units, LS mean difference [4, 5]: -0.84 s
